Measurements: US20260034111A1, “NOVEL HETEROCYCLES AS sPLA2-X INHIBITORS” (Cayman Chemical Company Incorporated, priority 2022, published 2026)
Counter-ions that a name gives are not always drawn. Like-named read-outs stand apart in the source and are kept apart here.

Tests used:
Type in all cases: biochemical
[1] = target: T1, recombinant human sPLA2-IIA enzyme (Homo sapiens, UniProt P14555); test: sPLA2-IIA enzyme inhibition assay (thio-PC substrate, DTNB detection, absorbance 410 nm); conditions: class symbols; read-out: sPLA2 Type IIa Inhibition (IC50; nM)
T1 construct: made in house; host or cells: E. coli
T1 sequence (P14555 21-144): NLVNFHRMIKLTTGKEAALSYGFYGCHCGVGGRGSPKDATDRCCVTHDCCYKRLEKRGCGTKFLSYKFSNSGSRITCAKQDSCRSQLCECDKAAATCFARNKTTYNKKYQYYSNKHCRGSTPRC
From the text: (§1) Screening Compounds for Inhibition of sPLA2-X, sPLA2-V, and sPLA2-IIA Enzyme Activity
(§2) These sPLA2 enzymes hydrolyze the sn-2 acyl chains of glycerophospholipids, resulting in the release of a free fatty acid and a lysophospholipid. In the case of the thio-PC substrate, this enzymatic hydrolysis results in a free sulfhydryl group remaining on the lysophospholipid. This free sulfhydryl reacts with DTNB to produce the chromogenic product 5-nitro-2-thiobenzoic acid (TNB) which can be quantitated by absorbance at 410 nm. The amount of TNB produced reflects the hydrolytic activity of the enzyme.
(§3) The recombinant human sPLA2 groups IIA, V, and X enzymes were expressed in E. coli and purified to >90% purity by standard biochemical methods.
(§4) Procedure of Enzyme Inhibition for sPLA2-X • 1. […] Dilute the test compounds in 100% DMSO by half-log steps in a 96-well dilution plate using columns 1-11 (one compound per row). Column 12 contains DMSO alone with no compound. • 3. Prepare a 3.5 mM thio-PC substrate solution by drying down 7.2 mg of stock thio-PC in ethanol under a gentle stream of N2 gas. When dry, add 4 mL assay buffer (25 mM Tris, pH7.4; 100 mM KCl; 10 mM CaCl2; 0.1% Triton X-100) and warm in a 37° C. water bath for 20 minutes with intermittent vortexing. • 4. Prepare an “enzyme containing” reaction mix with the following components: 20.4 mL assay buffer; 2 mL DTNB (20 mM in 800 mM Tris, pH8.0); and 11.8 mg recombinant human sPLA2-X enzyme (>95% pure) diluted to a total of 0.8 mL assay buffer. • 5. Prepare a “no enzyme” reaction mix with the following components: 477 μL assay buffer and 45 μL DTNB. • 6. Dispense 58 μL “no enzyme” reaction mix into each of 8 wells (columns 23 and 24, rows M-P). • 7. Dispense 58 μL “enzyme containing” reaction mix into all remaining wells on the plate. • 8. From the 96-well compound dilution plate, add 2 μL from each well for each compound to each of 4 wells with “enzyme containing” reaction mix. Columns 23 and 24 on the assay plate will contain only DMSO (vehicle control). […] After compound addition, mix the contents of each well to ensure that the DMSO is evenly distributed in the well. • 9. Cover the plate and incubate in the dark at room temperature for 15 minutes. • 10. Add 10 μL of thio-PC substrate to all wells. The final concentration of thio-PC in the reactions is 0.5 mM. • 11. Cover the plate and incubate in the dark at room temperature for 30 minutes. • 12. Measure the absorbance of all wells at 410 nm. • 13. Determine the mean absorbance of the “no enzyme” wells. Subtract this value from the absorbance values determined for all other wells (these are now background corrected data). • 14. […] Procedure of Enzyme Inhibition for sPLA2-V • 1. […] Dilute the test compounds in 100% DMSO by half-log steps in a 96-well dilution plate using columns 1-11. Column 12 contains DMSO alone with no compound. • 3. Prepare a 3.5 mM thio-PC substrate solution by drying down 7.2 mg of stock thio-PC in ethanol under a gentle stream of N2 gas. When dry, add 4 mL assay buffer (25 mM Tris, pH7.4; 100 mM KCl; 10 mM CaCl2; 0.1% Triton X-100) and warm in a 37° C. water bath for 20 minutes with intermittent vortexing. • 4. Prepare an “enzyme containing” reaction mix with the following components: 20.4 mL assay buffer; 2 mL DTNB (20 mM in 800 mM Tris, pH8.0); and 12 mg recombinant human sPLA2-V enzyme (>95% pure) diluted to a total of 0.8 mL assay buffer. • 5. Prepare a “no enzyme” reaction mix with the following components: 477 μL assay buffer and […]. • 6. Dispense 58 μL “no enzyme” reaction mix into each of 8 wells (columns 23 and 24, rows M-P). • 7. Dispense 58 μL “enzyme containing” reaction mix into all remaining wells on the plate. • 8. From the 96-well compound dilution plate, add 2 μL from each well for each compound to each of 4 wells with “enzyme containing” reaction mix. Columns 23 and 24 on the assay plate will contain only DMSO (vehicle control).

[2] = target: T2, recombinant human sPLA2-V enzyme (Homo sapiens, UniProt P39877); test: sPLA2-V enzyme inhibition assay (thio-PC substrate, DTNB detection, absorbance 410 nm); conditions: class symbols; read-out: sPLA2 Type V Inhibition (IC50; nM)
T2 construct: made in house; host or cells: E. coli
T2 sequence (P39877 21-138): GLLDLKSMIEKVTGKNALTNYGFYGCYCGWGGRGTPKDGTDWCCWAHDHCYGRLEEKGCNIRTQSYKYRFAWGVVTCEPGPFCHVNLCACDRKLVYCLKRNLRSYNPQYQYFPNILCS
From the text: as §1, §2, §3, §4

[3] = target: T3, sPLA2-X protein (Homo sapiens, UniProt O15496); test: sPLA2-X enzyme inhibition assay (thio-PC substrate, DTNB detection, absorbance 410 nm); design: made in house; host or cells: E. coli; conditions: class symbols
T3 sequence (O15496 43-165): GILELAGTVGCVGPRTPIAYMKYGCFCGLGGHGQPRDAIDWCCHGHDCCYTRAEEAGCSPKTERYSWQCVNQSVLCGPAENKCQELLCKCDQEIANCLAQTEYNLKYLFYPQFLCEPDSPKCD
From the text: as §1, §2, §3, §4

[4] = read-out: sPLA2 Type X Inhibition (IC50; nM)

SMILES | IC50 [1] [nM] | IC50 [2] [nM] | IC50 [3, 4] [nM] | IC50 ([3]; sPLA2 Type X Inhibition (IC50; nM)) [nM]
NC(=O)c1cc2ccc(OC(F)(F)F)cc2n1-c1cccc([C@@H]2C[C@H]2C(=O)O)n1 (single isomer, unassigned) [Compound 28b, trans-(+)-2-(6-(2-carbamoyl-6-(trifluoromethoxy)-1H-indol-1-yl)pyridin-2-yl)cyclopropane-1-carboxylic acid] | > 1000 | > 5000 | > 200 | –
O=C(O)c1cc2ccc(OC(F)(F)F)cc2n1-c1cccc(C2(C(=O)O)CC2)n1 [Compound 39, 1-(6-(1-carboxycyclopropyl)pyridin-2-yl)-6-(trifluoromethoxy)-1H-indole-2-carboxylic acid] | > 1000 | > 5000 | > 200 | –
COc1cnc2cc(C(N)=O)n(-c3cccc(C4CC4C(=O)O)n3)c2c1 (single isomer, unassigned) [Compound 51, trans-2-(6-(2-carbamoyl-6-methoxy-1H-pyrrolo[3,2-b]pyridin-1-yl)pyridin-2-yl)cyclopropane-1-carboxylic acid] | > 1000 | > 5000 | > 200 | –
CC(C)(Cc1cccc(-n2c(C(N)=O)cc3ccc(OC(F)(F)F)cc32)n1)C(=O)O [Compound 8, 3-(6-(2-carbamoyl-6-(trifluoromethoxy)-1H-indole-1-yl)pyridin-2-yl)-2,2-dimethylpropanoic acid] | > 1000 | > 5000 | 50 to 200 | –
NC(=O)c1sc2ccc(OC(F)(F)F)cc2c1-c1cccc(C2(CC(=O)O)CC2)c1 [Compound 36, 2-(1-(3-(2-carbamoyl-5-(trifluoromethoxy)benzo[b]thiophen-3-yl)phenyl)cyclopropyl)acetic acid] | > 1000 | 500 to 1500 | < 20 | –
NC(=O)c1[se]c2ccc(OC(F)(F)F)cc2c1-c1cccc(C2(CC(=O)O)CC2)c1 [Compound 34, 2-(1-(3-(2-carbamoyl-5-(trifluoromethoxy)benzo[b]selenophen-3-yl)phenyl)cyclopropyl)acetic acid] | > 1000 | 1500 to 5000 | – | 20 to 50
CC(C)(Cc1cccc(-n2c(C(N)=O)cc3ccc(OC(F)(F)F)cc32)c1)C(=O)O [Compound 3, 3-(3-(2-carbamoyl-6-(trifluoromethoxy)-1H-indol-1-yl)phenyl)-2,2-dimethylpropanoic acid] | 500 to 1000 | 1500 to 5000 | < 20 | –
NC(=O)c1cc2ccc(OC(F)(F)F)cc2n1-c1cccc(C2(N)CCC2)n1 [Compound 49, 1-(6-(1-aminocyclobutyl)pyridin-2-yl)-6-(trifluoromethoxy)-1H-indole-2-carboxamide TFA salt] | > 1000 | > 5000 | > 200 | –
NC(=O)c1sc2ccc(OC(F)(F)F)cc2c1-c1cccc(C2CC2C(=O)O)n1 (stereo not drawn) [Compound 56, trans-2-(6-(2-carbamoyl-5-(trifluoromethoxy)benzo[b]thiophen-3-yl)pyridin-2-yl)cyclopropane-1-carboxylic acid] | > 1000 | > 5000 | < 20 | –
NC(=O)c1cc2ccc(OC(F)(F)F)cc2n1-c1cccc(C2(NCC(=O)O)CCC2)n1 [Compound 50, (1-(6-(2-carbamoyl-6-(trifluoromethoxy)-1H-indol-1-yl)pyridin-2-yl)cyclobutyl)glycine] | > 1000 | > 5000 | 20 to 50 | –
CC(=O)NCc1cccc(-n2c(C(N)=O)cc3ccc(OC(F)(F)F)cc32)n1 [Compound 32, 1-(6-(acetamidomethyl)pyridin-2-yl)-6-(trifluoromethoxy)-1H-indole-2-carboxamide] | > 1000 | > 5000 | > 200 | –
NC(=O)c1cc2ccc(OC(F)(F)F)cc2n1-c1cccc([C@H]2C[C@@H]2C(=O)O)n1 (relative stereo) [Compound 28a, trans-(−)-2-(6-(2-carbamoyl-6-(trifluoromethoxy)-1H-indol-1-yl)pyridin-2-yl)cyclopropane-1-carboxylic acid] | > 1000 | > 5000 | < 20 | –
NC(=O)c1cc2ccc(OC(F)(F)F)cc2n1-c1cccc(S(=O)(=O)CC(=O)O)n1 [Compound 45, 2-((6-(2-carbamoyl-6-(trifluoromethoxy)-1H-indol-1-yl)pyridin-2-yl)sulfonyl)acetic acid] | > 1000 | > 5000 | 20 to 50 | –
CC(C)(CC(=O)O)c1cccc(-n2c(C(N)=O)cc3ccc(OC(F)(F)F)cc32)c1 [Compound 22, 3-(3-(2-carbamoyl-6-(trifluoromethoxy)-1H-indol-1-yl)phenyl)-3-methylbutanoic acid] | > 1000 | 1500 to 5000 | < 20 | –

Second part, led by results:

IC50 [1] [nM] | IC50 [2] [nM] | IC50 [3, 4] [nM] | SMILES | IC50 ([3]; sPLA2 Type X Inhibition (IC50; nM)) [nM]
> 1000 | > 5000 | 20 to 50 | NC(=O)c1cc2ccc(OC(F)(F)F)cc2n1-c1cccc(C2CC2C(=O)O)c1 (single isomer, unassigned) [Compound 15b, trans-(−)-2-(3-(2-carbamoyl-6-(trifluoromethoxy)-1H-indol-1-yl)phenyl)cyclopropane-1-carboxylic acid] | –
> 1000 | > 5000 | > 200 | CS(=O)(=O)NCc1cccc(-n2c(C(N)=O)cc3ccc(OC(F)(F)F)cc32)n1 [Compound 33] | –
200 to 500 | < 500 | < 20 | NC(=O)c1cc2ccc(OC(F)(F)F)cc2n1-c1cccc(SC2(C(=O)O)CCC2)c1 [Compound 4, 1-((3-(2-carbamoyl-6-(trifluoromethoxy)-1H-indol-1-yl)phenyl)thio)cyclobutane-1-carboxylic acid] | –
< 200 | > 5000 | < 20 | NC(=O)c1cc2ccc(OC(F)(F)F)cc2n1-c1cccc(C2CC2C(=O)O)n1 (single isomer, unassigned) [Compound 28e, cis-(+)-2-(6-(2-carbamoyl-6-(trifluoromethoxy)-1H-indol-1-yl)pyridin-2-yl)cyclopropane-1-carboxylic acid] | –
> 1000 | 1500 to 5000 | 20 to 50 | CC(C)(CC(=O)O)c1cccc(-n2c(C(N)=O)cc3ccc(OC(F)(F)F)cc32)n1 [Compound 62, 3-(6-(2-carbamoyl-6-(trifluoromethoxy)-1H-indol-1-yl)pyridin-2-yl)-3-methylbutanoic acid] | –
> 1000 | > 5000 | > 200 | NC(=O)c1cc2ccccc2n1-c1cccc(CCC(=O)O)c1 [Compound 21, 3-(3-(2-carbamoyl-1H-indol-1-yl)phenyl)propanoic acid] | –
